Counter-ions that a name gives are not always drawn.

As to `CC1CC1c1ccccc1Oc1nnc(Cl)cc1O` (stereo not shown) [Compound No. 217, 6-Chloro-3-[2-(2-methylcyclopropyl)phenoxy]-4-pyridazinol], the melting point – broadly, the temperature, or range, at which the solid turns liquid – is 192 to 208 °C.

For `Cc1ccc(S(=O)(=O)Oc2ccccc2Oc2nnc(Cl)cc2OS(=O)(=O)c2ccc(C)cc2)cc1` (as salt: benzene sulfonate) [Compound No. 2233, 2-[(6-Chloro-4-{[(4-methylphenyl)sulfonyl]oxy}-3-pyridazinyl)oxy]phenyl 4-methylbenzene sulfonate], the melting point lay in the range of 125.5 to 126.5 °C.

On to `COc1ccccc1C(=O)Oc1cc(Cl)nnc1Oc1ccccc1C` [Compound No. 1509, 6-Chloro-3-(2-methylphenoxy)-4-pyridazinyl 2-methoxybenzoate], for which the melting point fell in the range of 114 to 116 °C.

Regarding `CC1(C)Cc2cccc(Oc3nnc(Cl)cc3O)c2C1` [Compound No. 513, 6-Chloro-3-[(2,2-dimethyl-2,3-dihydro-1H-inden-4-yl)oxy]-4-pyridazinol], the melting point lay within 220 to 223 °C.

As for `Oc1cc(Cl)nnc1Oc1cc(C(F)(F)F)cc(C(F)(F)F)c1` [Compound No. 1009, 3-[3,5-Bis(trifluoromethyl)phenoxy]-6-chloro-4-pyridazinol], the melting point lay in the range of 237 to 242 °C.

`Cc1ccc(S(=O)(=O)Oc2cc(Cl)nnc2Oc2ccccc2C)cc1` [Compound No. 2220, 6-Chloro-3-(2-methylphenoxy)-4-pyridazinyl 4-methylbenzenesulfonate] had a melting point of 102 to 104 °C.

For the molecule `Cc1ccc(C2CC2)c(Oc2nnc(Cl)cc2O)c1C` [Compound No. 1061, 6-Chloro-3-(6-cyclopropyl-2,3-dimethylphenoxy)-4-pyridazinol], the melting point fell in the range of 229 to 234 °C.

`CCOc1ccccc1Oc1nnc(Cl)cc1O` [Compound No. 386, 6-Chloro-3-(2-ethoxyphenoxy)-4-pyridazinol] showed a melting point of 155 to 175 °C.

`Cc1ccc(C2CC2)c(Oc2nnc(Cl)cc2O)c1` [Compound No. 662, 6-Chloro-3-(2-cyclopropyl-5-methylphenoxy)-4-pyridazinol] yielded a melting point of 150 to 159 °C.

Molecule `COc1ccc(C2CC2)c(Oc2nnc(Cl)cc2O)c1C` [Compound No. 1069, 6-Chloro-3-(6-cyclopropyl-3-methoxy-2-methylphenoxy)-4-pyridazinol] registered a melting point of 250 to 253 °C.

`Oc1cc(Cl)nnc1Oc1c(C2CC2)ccc2c1CCC2` [Compound No. 1091, 6-Chloro-3-[(5-cyclopropyl-2,3-dihydro-1H-inden-4-yl)oxy]-4-pyridazinol] registered a melting point of 218 to 220 °C.

As to `CN(C)C(=O)Oc1cc(Cl)nnc1Oc1cccc(C(F)(F)F)c1`, the melting point was 92 to 93 °C.

As to `Cc1ccccc1Oc1nnc(Cl)cc1OC(=O)OCC(C)C` [Compound No. 1757, 6-Chloro-3-(2-methylphenoxy)-4-pyridazinyl isobutyl carbonate], the melting point was 46 to 47 °C.

In turn, `Cc1c(Br)ccc(C2CC2)c1Oc1nnc(Cl)cc1O` [Compound No. 2587, 3-(3-Bromo-6-cyclopropyl-2-methylphenoxy)-6-chloro-4-pyridazinol] came in with a melting point of 234 to 235 °C.

With `C#Cc1ccccc1Oc1nnc(Cl)cc1O` [Compound No. 308, 6-Chloro-3-(2-ethynylphenoxy)-4-pyridazinol], the melting point lay within 189 to 191 °C.

`CC(C)(C)c1cccc(Oc2nnc(Cl)cc2O)c1` [Compound No. 416, 3-(3-tert-Butylphenoxy)-6-chloro-4-pyridazinol] had a melting point of 203 to 207 °C.

On to `Cc1cccc(C2CC2)c1Oc1nnc(Cl)cc1OC(=O)N(C)C(C)(C)C`, for which the melting point was in the range of 113 to 115 °C.

Consider `Cc1ccc2c(c1Oc1nnc(Cl)cc1O)CCC2` [Compound No. 1088, 6-Chloro-3-[(5-methyl-2,3-dihydro-1H-inden-4-yl)oxy]-4-pyridazinol], for which the melting point is 222 to 225 °C.

Take `Cc1ccccc1Oc1nnc(Cl)cc1OC(=O)c1ccccc1C(=O)Oc1cc(Cl)nnc1Oc1ccccc1C` [Compound No. 2827, Bis[6-chloro-3-(2-methylphenoxy)-4-pyridazinyl]phthalate]: the melting point fell in the range of 157 to 158 °C.

Turning to `CCOC1CC1c1ccccc1Oc1nnc(Cl)cc1O` (stereo not shown) [Compound No. 249, 6-Chloro-3-[2-(2-ethoxycyclopropyl)phenoxy]-4-pyridazinol], the melting point lay within 145 to 152 °C.

`Cc1ccc(C)c(C2CC2)c1Oc1nnc(Cl)cc1O` [Compound No. 1073, 6-Chloro-3-(2-cyclopropyl-3,6-dimethylphenoxy)-4-pyridazinol] had a melting point of 171 to 175 °C.

With `CCOc1cccc(C2CC2)c1Oc1nnc(Cl)cc1O` [Compound No. 965, 6-Chloro-3-(2-cyclopropyl-6-ethoxyphenoxy)-4-pyridazinol], the melting point fell in the range of 174 to 179 °C.

For `Cc1ccccc1Oc1cc(O)c(Oc2ccccc2C)nn1` [Compound No. 2492, 3,6-Bis(2-methylphenoxy)-4-pyridazinol], the melting point fell in the range of 247 to 250 °C.

Take `CCc1cc(I)cc(I)c1Oc1nnc(Cl)cc1O` [Compound No. 1120, 6-Chloro-3-(2-ethyl-4,6-diiodophenoxy)-4-pyridazinol]: the melting point lay within 142 to 144 °C.

`CCCc1cccc(F)c1Oc1nnc(Cl)cc1O` [Compound No. 716, 6-Chloro-3-(2-fluoro-6-propylphenoxy)-4-pyridazinol] came in with a melting point of 134 to 137 °C.

`Oc1cc(Cl)nnc1Oc1c(Cl)cccc1Br` [Compound No. 734, 3-(2-Bromo-6-chlorophenoxy)-6-chloro-4-pyridazinol] came in with a melting point of 266 to 274 °C.

With `Oc1cc(Cl)nnc1Oc1cccc2c1C1CC1C2` (stereo not shown) [Compound No. 515, 3-(1,1a,6,6a-Tetrahydrocyclopropa[a]inden-2-yloxy)-6-chloro-4-pyridazinol], the melting point is 245 to 247 °C.

Regarding `Oc1cc(Cl)nnc1Oc1cccc(C(F)(F)F)c1` [Compound No. 418, 6-Chloro-3-[3-(trifluoromethyl)phenoxy]-4-pyridazinol], the melting point fell in the range of 213 to 216 °C.

As to `Cc1ccc(C(=O)Oc2cc(Cl)nnc2Oc2c(C)cccc2C2CC2)cc1` [Compound No. 1566, 6-Chloro-3-(2-cyclopropyl-6-methylphenoxy)-4-pyridazinyl 4-methylbenzoate], the melting point lay within 77.5 to 78 °C.

The molecule `Cc1ccc(S(=O)(=O)Oc2cc(Cl)nnc2Oc2ccc(C(C)(C)C)cc2Br)cc1` [Compound No. 2245, 3-(2-Bromo-4-tert-butylphenoxy)-6-chloro-4-pyridazinyl 4-methylbenzenesulfonate] gave a melting point of 110 to 112 °C.

In the case of `CC(C)Oc1ccccc1Oc1nnc(Cl)cc1O` [Compound No. 387, 6-Chloro-3-(2-isopropoxyphenoxy)-4-pyridazinol], the melting point was in the range of 178 to 179 °C.

Molecule `CSc1ccccc1Oc1nnc(Cl)cc1O` [Compound No. 401, 6-Chloro-3-[2-(methylsulfanyl)phenoxy]-4-pyridazinol] showed a melting point of 174 to 175 °C.

`Cc1c(Cl)cccc1Oc1nnc(Cl)cc1O` [Compound No. 454, 6-Chloro-3-(3-chloro-2-methylphenoxy)-4-pyridazinol] displayed a melting point of 250 to 252 °C.

As to `COc1cccc(Oc2nnc(Cl)cc2OS(=O)(=O)c2ccc(C)cc2)c1` [Compound No. 2238, 6-Chloro-3-(3-methoxyphenoxy)-4-pyridazinyl 4-methylbenzenesulfonate], the melting point lay in the range of 89 to 90 °C.

Molecule `Cc1coc2cccc(Oc3nnc(Cl)cc3O)c12` [Compound No. 532, 6-Chloro-3-[(3-methyl-1-benzofuran-4-yl)oxy]-4-pyridazinol] showed a melting point of 218 to 225 °C.

Molecule `C=C(C)C(=O)Oc1cc(Cl)nnc1Oc1c(C)cccc1C1CC1` [Compound No. 2677, 6-Chloro-3-(2-cyclopropyl-6-methylphenoxy)-4-pyridazinyl 2-methylacrylate] registered a melting point of 98 to 100 °C.

`Cc1cccc(C(C)(C)C)c1Oc1nnc(Cl)cc1O` [Compound No. 805, 3-(2-tert-Butyl-6-methylphenoxy)-6-chloro-4-pyridazinol] registered a melting point of 135 to 136 °C.

`Oc1cc(Cl)nnc1Oc1ccccc1C1CC1` [Compound No. 139, 6-Chloro-3-(2-cyclopropylphenoxy)-4-pyridazinol] came in with a melting point of 229 to 231 °C.

`Oc1cc(Cl)nnc1Oc1c(Cl)cccc1I` [Compound No. 735, 6-Chloro-3-(2-chloro-6-iodophenoxy)-4-pyridazinol] returned a melting point of 262 to 264 °C.

For `Cc1cccc(Oc2nnc(Cl)cc2O)c1C` [Compound No. 456, 6-Chloro-3-(2,3-dimethylphenoxy)-4-pyridazinol], the melting point lay within 240 to 241 °C.

As to `CCc1cccc(Br)c1Oc1nnc(Cl)cc1O` [Compound No. 759, 3-(2-Bromo-6-ethylphenoxy)-6-chloro-4-pyridazinol], the melting point lay in the range of 215 to 217 °C.

The molecule `CON=C(C)c1ccc(Oc2nnc(Cl)cc2O)c(C)c1` [Compound No. 2571, 1-{4-[(6-Chloro-4-hydroxy-3-pyridazinyl)oxy]-3-methylphenyl}ethanone O-methyloxime] displayed a melting point of 189 to 192 °C.

For the molecule `CCC(=O)Oc1cc(Cl)nnc1Oc1c(C)cccc1C1CC1` [Compound No. 1160, 6-Chloro-3-(2-cyclopropyl-6-methylphenoxy)-4-pyridazinyl propionate], the melting point lay in the range of 75 to 77 °C.

In turn, `COCc1c(Cl)nnc(Oc2ccccc2C)c1O` [Compound No. 2378, 6-Chloro-5-(methoxymethyl)-3-(2-methylphenoxy)-4-pyridazinol] came in with a melting point of 123 to 126 °C.

The molecule `N#Cc1ccc(C2CC2)c(Oc2nnc(Cl)cc2O)c1` [Compound No. 667, 3-[(6-Chloro-4-hydroxy-3-pyridazinyl)oxy]-4-cyclopropylbenzonitrile] gave a melting point of 211 to 212 °C.

As to `Cc1cc(C)c(C2CC2)c(Oc2nnc(Cl)cc2O)c1C` [Compound No. 1126, 6-Chloro-3-(2-cyclopropyl-3,5,6-trimethylphenoxy)-4-pyridazinol], the melting point is 212 to 219 °C.

Source of the values: patent US7964531B2, “3-phenoxy-4-pyridazinol derivatives and herbicidal composition containing the same” (Mitsui Chemicals Agro, Inc., priority 2001, dated 2011).
